Data set [1] has as its system rat mixed hippocampal cultures. The data set is described as follows: 3-NP neurotoxicity (neuroprotection) assay, MTT endpoint. In kind it is cell-based. The following applies: for protection from oxidative damage elicited by 3-NP (FIG. 4): increasing concentrations, 1 h prior to 3 mM 3-NP for 18 h; for % Protection vs. 3-NP / Protection vs 3NP: 10 μM agent, 60 minutes incubation, 3 mM 3-NP, compared to 0.1% DMSO vehicle control; for protection from oxidative damage elicited by 3-NP (positive controls, FIG. 2): 10 μM, 1 hour pretreatment, 3 mM 3-NP for 18 hours. The protocol: For example, a cell viability assay can be utilized to detect and/or measure the ability of a compound disclosed herein to protect neuronal and/or glial cells. In some embodiments, mixed hippocampal cell cultures are prepared as described in, e.g., Haughey et al. (1999), J Neurochem, 73(4):1363-1374, and Haughey et al (2004), J Neurosci, 24(1):257-268. Subsequently, the cultures are pretreated for one hour in the presence of a candidate neuroprotective agent and then incubated with a cytotoxic agent for about 18 hours. Examples of cytotoxic agents include, but are not limited to, oxidative stressors (e.g., 3-nitropropionic acid (3-NP) or H2O2),.excitatory amino acids (e.g., kainate), or neurotoxic proteins (e.g., Hiv Tat, or Aβ peptides). […] The level of protection (“percent protection”) provided by the test compound at a given test concentration in vitro can be expressed as: […]
(§1) We evaluate the protective efficacy of a number of antifungal agents against many different neurotoxins, ranging from the chemotoxic 6-OHDA, NMDA, 3-nitropropionic acid (3-NP), and viral proteins such as Tat and gp120. Thus, we provide an in vitro neuroprotection assay using rat mixed hippocampal cultures, in which we evaluate the protective efficacy of neuroprotective compounds described herein. The oxidative stressor 3-NP is used to elicit toxicity in the rat hippocampal cultures to mimic the oxidative damage, reactive oxygen species production and ensuing neurodegeneration resulting from HIV infection. Another measure of neurotoxicity which results from HIV infection is evaluated by exposure of the hippocampal cultures to HIV-1 Tat (Li et al (2005), Neurotox Res, 8(1-2):119-134).
(§2) Rat mixed hippocamal neuronal cultures are generated from freshly dissected rat hippocampi (embryonic day 18) in neurobasal media containing 5% fetal bovine serum and 2% B27 supplement. The cells are plated into 96 well plates at a density of 4×10^5 cells/mL and routinely used on days 11-14 following culturing. Cell viability is assessed with MTT [3-(4,5-dimethylthiazol-2-yl)-2,5-diphenyltetrazolium bromide] assay. The MTT assay is based on the ability of a mitochondrial dehydrogenase enzyme from viable cells to cleave the tetrazolium rings of the pale yellow MTT and form dark blue formazan crystals. See Mosmann (1983), J Immunol Methods, 65(1-2):55-63. These crystals are largely impermeable to cell membranes, and thus accumulate within healthy cells. The resultant formazan precipitates are solubilized with DMSO and read on a multiwell scanning spectrophotometer (ELISA reader). The number of surviving cells is directly proportional to the level of the formazan product created.
(§3) Mixed hippocampal cultures are incubated with 3-NP (0.5-10 mM) for 18 hours in a 0.1% DMSO vehicle and then assessed for viability using an MTT assay.
Neuroprotection vs 3NP is measured as a percentage of neural and/or glial cell that are protected from 3NP induced cell death after incubation with the neuroprotective agent (10 μM) for 60 minutes when compared to a 0.1% DMSO vehicle control.
The neural and glial cells were preincubated with the neuroprotective compound for 1 hour followed by exposure to3 mM of the toxin for 18 hours.

Data set [2] relates to rat mixed hippocampal cultures. Put plainly: HIV-1 Tat neurotoxicity assay, MTT endpoint. The class given is cell-based. The settings on record: for protection of hippocampal cultures from HIV-Tat toxicity (FIG. 5): increasing concentrations, 1 hour preincubation, 500 nM Tat1-72 for 18 hours; for protection from HIV-1 Tat toxicity (positive controls, FIG. 3): 10 μM, 1 hour pretreatment, 500 nM Tat for 18 hours.
Text: as §1, §2
The assay system is validated using two neuroprotective agents, GPI 1046 and Resveratrol. […] Cultures are preincubated with GPI 1046 or Resveratrol for one hour prior to an 18 hour exposure to 3 mM 3-NP. […] The same neuroprotective compounds are evaluated for efficacy against HIV-1 Tat protein toxicity using the same 1 hour preincubation protocol.
The neural and glial cells were preincubated with the neuroprotective compound for 1 hour followed by exposure to 500 nM of Tat1-72 for 18 hours.

Data set [3] relates to Mixed hippocampal cultures. Put plainly: ADP ribose toxicity assay, MTT endpoint. In kind it is cell-based, rat. The following applies: increasing concentrations, 24 h prior to 1 mM ADP ribose for 18 h. The protocol:
Mixed hippocampal cultures were treated with increasing concentrations of fluconazole (panel A) or voriconazole (panel B), for 24 h prior to exposure to 1 mM ADP ribose for 18 h. Cell survival was measured following ADP ribose by MTT assay. Statistical significance was determined by ANOVA with Newman-Keuls pairwise post hoc comparisons. Statistical significance * indicates p<0.05, ** indicates p<0.01; *** indicates p<0.001.
as §2, with “The number of surviving cells is directly proportional to the level of the formazan product created.” left out

Data set [4] concerns Mixed hippocampal cultures. Put plainly: 6-OHDA neurotoxicity assay, MTT endpoint. The following applies: increasing concentrations, 1 h prior to 100 μM 6-OHDA for 18 h. The class given is cell-based, rat. The protocol:
Mixed hippocampal cultures were treated with increasing concentrations of fluconazole (panel A) or voriconazole (panel B), for 1 h prior to exposure to 100 μM 6-hydroxydopamine (6-OHDA) for 18 h. Cell survival was measured following 6-OHDA by MTT assay. Statistical significance was determined by ANOVA with Newman-Keuls pairwise post hoc comparisons. Statistical significance * indicates p<0.05, ** indicates p<0.01; *** indicates p<0.00
as §2, with “The number of surviving cells is directly proportional to the level of the formazan product created.” left out

Data set [5] concerns Mixed hippocampal cultures. Put plainly: NMDA excitotoxicity assay, MTT endpoint. The class given is cell-based, rat. The following applies: increasing concentrations, 1 h prior to 500 μM NMDA for 18 h. The protocol: Mixed hippocampal cultures were treated with increasing concentrations of fluconazole (panel A) or voriconazole (panel B), for 1 h prior to exposure to 500 μM N-methyl D-aspartate (NMDA) for 18 h. Cell survival was measured following NMDA by MTT assay. Statistical significance was determined by ANOVA with Newman-Keuls pairwise post hoc comparisons. Statistical significance * indicates p<0.05, ** indicates p<0.01; *** indicates p<0.001.
as §2, with “The number of surviving cells is directly proportional to the level of the formazan product created.” left out

The test system of data set [6] is rat mixed hippocampal cultures. The data set is described as follows: Titration of 3-NP toxicity, MTT endpoint. In kind it is cell-based. The following applies: 3 mM 3-NP, 18 hours, compared to 0.1% DMSO vehicle control. The protocol:
FIG. 1 presents an illustrative titration of 3-NP toxicity in rat mixed hippocampal cultures. Rat mixed hippocampal cultures, day 11-14 in vitro, were subjected to 18 hour exposure to 3-NP, followed by MTT treatment to quantitate cell viability.
as §2, §3

As for `Clc1ccc(COC(Cn2ccnc2)c2ccc(Cl)cc2Cl)cc1` (stereo not shown) [econazole], the “protection from oxidative damage elicited by 3-NP (FIG. 4)” value (shortened to “protection … (FIG. 4)”) in data set [1] is listed as “protect hippocampal neurons from oxidative damage elicited by 3-NP”. Besides, the “protection of hippocampal cultures from HIV-Tat toxicity (FIG. 5)” value (“protection of hippocampal cultures” for short) in data set [2] is “concentration dependent protection”.

With `Cc1cccc(N(C)C(=S)Oc2ccc3ccccc3c2)c1` [TOLNAFTATE, Tolnaftate], in data set [1], the “% Protection vs. 3-NP” value was found to be 66.8%, the “Protection vs 3NP” value was 66.83% and the “protection … (FIG. 4)” value is listed as “protect hippocampal neurons from oxidative damage elicited by 3-NP”. In data set [2], the “protection of hippocampal cultures” value is given as “concentration dependent protection”.

As for `Clc1ccc(COC(Cn2ccnc2)c2ccc(Cl)cc2Cl)cc1` (stereo not shown) [ECONAZOLE NITRATE, Econazole Nitrate], in data set [1], the “% Protection vs. 3-NP” value is on record as 141.2% and the “Protection vs 3NP” value stood at 141.18%.

`Clc1ccc(COC(Cn2ccnc2)c2ccc(Cl)cc2Cl)c(Cl)c1` (stereo not shown) [miconazole]: the “protection … (FIG. 4)” value in data set [1] is on record as “protect hippocampal neurons from oxidative damage elicited by 3-NP”. In addition, the “protection of hippocampal cultures” value in data set [2] is reported as “concentration dependent protection”.

Regarding `CC(=O)OCC(COC(C)=O)OC(C)=O` [TRIACETIN], the “Protection vs 3NP” value in data set [1] amounted to 45.14%.

Turning to `Oc1ccc(C=Cc2cc(O)cc(O)c2)cc1` [Resveratrol], in data set [1], the “protection from oxidative damage elicited by 3-NP (positive controls, FIG. 2)” value is reported as “significantly protected rat neurons from oxidative damage”. Also, the “protection from HIV-1 Tat toxicity (positive controls, FIG. 3)” value in data set [2] is recorded as “protected hippocampal neurons from Tat toxicity”.

`C[C@@H](c1ncncc1F)[C@](O)(Cn1cncn1)c1ccc(F)cc1F` [voriconazole]: in data set [3], the “protection from toxicity elicited by ADP ribose (FIG. 8)” value is on record as “protect hippocampal neurons from toxicity elicited by ADP ribose”. Further, the “protection … (FIG. 4)” value in data set [1] is reported as “protect hippocampal neurons from oxidative damage elicited by 3-NP”. In data set [4], the “protection from 6-OHDA neurotoxicity (FIG. 7)” value is “protect hippocampal neurons from 6-OHDA neurotoxicity”. Besides, the “protection of hippocampal cultures” value in data set [2] is listed as “concentration dependent protection”. Moreover, the “protection from excitotoxic lesions elicited by NMDA (FIG. 6)” value in data set [5] is recorded as “protect hippocampal neurons from excitotoxic lesions elicited by NMDA”.

With `Clc1ccc(CSC(Cn2ccnc2)c2ccc(Cl)cc2Cl)cc1` (stereo not shown) [SULCONAZOLE NITRATE, Sulconazole Nitrate], in data set [1], the “% Protection vs. 3-NP” value is listed as 18.21% and the “Protection vs 3NP” value was 18.21%.

For the compound `Clc1ccccc1C(c1ccccc1)(c1ccccc1)n1ccnc1` [CLOTRIMAZOLE, Clotrimazole], in data set [1], the “% Protection vs. 3-NP” value is 12.6%, the “Protection vs 3NP” value stood at 12.57% and the “protection … (FIG. 4)” value was “protect hippocampal neurons from oxidative damage elicited by 3-NP”. Further, in data set [2], the “protection of hippocampal cultures” value is on record as “concentration dependent protection”.

In the case of `C[C@@H]1[C@H](O)[C@@H](C)/C=C/C=C/CC/C=C/C=C/C=C/C=C/C(O[C@H]2O[C@H](C)[C@@H](O)[C@H](N)[C@@H]2O)CC2O[C@](O)(CC(O)C(O)CCC(O)CC(O)CC(O)CC(=O)O[C@H]1C)CC(O)C2C(=O)O` (stereo partly shown) [NYSTATIN], the “Protection vs 3NP” value in data set [1] was 46.72%.

As to `Clc1ccc(COC(Cn2ccnc2)c2ccc(Cl)cc2Cl)c(Cl)c1` (stereo not shown) [MICONAZOLE NITRATE, Miconazole Nitrate], in data set [1], the “% Protection vs. 3-NP” value stood at 81.6% and the “Protection vs 3NP” value amounted to 81.61%.

With `CCCCCCOc1ccccc1C(N)=O` [EXALAMIDE], the “Protection vs 3NP” value in data set [1] is reported as 9.19%.

For `Fc1ccc(C(c2ccccc2)(c2ccccc2F)n2ccnc2)cc1` (stereo not shown) [FLUTRIMAZOLE], the “Protection vs 3NP” value in data set [1] amounted to 46.85%.

On to `O=C(O)CC[N+](=O)[O-]` [3-NP, 3-nitropropionic acid], for which the cytotoxicity in data set [6] is 25-35%.

As to `CC(=O)N1CCN(c2ccc(OCC3COC(Cn4ccnc4)(c4ccc(Cl)cc4Cl)O3)cc2)CC1` (stereo not shown) [KETOCONAZOLE], the “Protection vs 3NP” value in data set [1] was found to be 20.93%.

Turning to `COc1ccc(/C=C/c2cc(O)cc(O[C@@H]3O[C@H](CO)[C@@H](O)[C@H](O)[C@H]3O)c2)cc1O` [RHAPONTIN], the “Protection vs 3NP” value in data set [1] was 22.12%.

Take `CCC(C)(C)C(=O)C(=O)N1CCC[C@H]1C(=O)OCCCc1cccnc1` [GPI 1046]: the “protection from oxidative damage elicited by 3-NP (positive controls, FIG. 2)” value in data set [1] is given as “significantly protected rat neurons from oxidative damage”. Moreover, the “protection from HIV-1 Tat toxicity (positive controls, FIG. 3)” value in data set [2] is “protected hippocampal neurons from Tat toxicity”.

(Values after patent publication US20100298394A1, “ANTIFUNGAL AGENTS AS NEUROPROTECTANTS” (THE JOHNS HOPKINS UNIVERSITY, priority 2007, published 2010).)
